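These data come from cells grown in 96-well plates and exposed to compound for 48 hours at five concentrations. TGI is the concentration that stops growth completely.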
Key:
Assay in all cases: NCI tumour cell line growth inhibition, 48 h
KM12 colon = test system: KM12 colon
NCI-H460 lung = test system: NCI-H460 lung
A498 renal = test system: A498 renal
COLO 205 colon = test system: COLO 205 colon
PC-3 prostate = test system: PC-3 prostate
SK-MEL-28 melanoma = test system: SK-MEL-28 melanoma
HT29 colon = test system: HT29 colon
SF-295 CNS = test system: SF-295 CNS
SK-MEL-2 melanoma = test system: SK-MEL-2 melanoma
BT-549 breast = test system: BT-549 breast
CAKI-1 renal = test system: CAKI-1 renal
HOP-92 NSCLC = test system: HOP-92 NSCLC
MDA-N = test system: MDA-N
DU-145 prostate = test system: DU-145 prostate
OVCAR-4 ovarian = test system: OVCAR-4 ovarian
K-562 leukemia = test system: K-562 leukemia
A549 NSCLC = test system: A549 NSCLC
SK-OV-3 ovarian = test system: SK-OV-3 ovarian
HCC-2998 colon = test system: HCC-2998 colon
SK-MEL-5 melanoma = test system: SK-MEL-5 melanoma

Compound | TGI (KM12 colon) | TGI (NCI-H460 lung) | TGI (A498 renal) | TGI (COLO 205 colon) | TGI (PC-3 prostate) | TGI (SK-MEL-28 melanoma) | TGI (HT29 colon) | TGI (SF-295 CNS) | TGI (SK-MEL-2 melanoma) | TGI (BT-549 breast) | TGI (CAKI-1 renal) | TGI (HOP-92 NSCLC) | TGI (MDA-N) | TGI (DU-145 prostate) | TGI (OVCAR-4 ovarian) | TGI (K-562 leukemia) | TGI (A549 NSCLC) | TGI (SK-OV-3 ovarian) | TGI (HCC-2998 colon) | TGI (SK-MEL-5 melanoma)
O=C1C[C@@H](Sc2ccccc2)C2(OCCO2)[C@H]2ON3CCC[C@@H]3[C@@H]12 | 18.4 µM | 18.7 µM | 30.5 µM | 6.32 µM | 20.6 µM | 23 µM | 2.86 µM | 26.7 µM | 13.3 µM | 18.9 µM | 15.9 µM | 11.4 µM | 6.97 µM | 6.07 µM | 19.6 µM | 13.8 µM | 26.3 µM | 27.9 µM | 20.8 µM | –
O=C(NCCNCCNCCNC(=O)c1cc(-c2ccccc2)nc2ccccc12)c1cc(-c2ccccc2)nc2ccccc12 | 5.54 µM | 3.4 µM | 9.68 µM | 4 µM | 14.1 µM | 3.08 µM | 3.14 µM | 3.09 µM | 3.08 µM | 21.9 µM | 29.4 µM | 7.81 µM | 2.97 µM | 11.8 µM | 13.8 µM | 4.12 µM | 18.6 µM | 11.1 µM | 3.1 µM | 2.88 µM
S=C(N/N=C(/c1ccccc1)c1ccccn1)Nc1ccc(Cl)cc1 | 13.7 µM | 5.53 µM | 9.4 µM | 18.2 µM | 10.3 µM | 11.8 µM | > 44.3 µM | 11.3 µM | 4.91 µM | 9.94 µM | 9.37 µM | 11.9 µM | 9.57 µM | 11.6 µM | 14.2 µM | 0.581 µM | 14 µM | 6.81 µM | 10.9 µM | 8.1 µM
CCO/C=N/C1=C(C#N)C(c2ccc(Cl)cc2)c2c(-c3ccccc3)nn(-c3ccccc3)c2O1 (stereo not given) | 18.7 µM | 46 µM | 19.9 µM | > 100 µM | 22.7 µM | 39.5 µM | 64.9 µM | 32.2 µM | 34.8 µM | 31.5 µM | 36 µM | 29.1 µM | 45.8 µM | > 31.6 µM | > 64.8 µM | > 100 µM | 21.5 µM | 48.2 µM | > 38.9 µM | –
NC1CC(=O)c2csc(Cl)c21 (stereo not given) | 17.4 µM | 49.5 µM | 33.5 µM | 12.1 µM | 23.9 µM | 46.3 µM | 29.2 µM | 32 µM | 30.7 µM | 33.4 µM | 3.68 µM | 25.4 µM | 22 µM | 20.9 µM | 68.8 µM | > 100 µM | 36.7 µM | 31.1 µM | 33.9 µM | 35.3 µM
COc1cc2nc(-c3ccccc3F)[nH]c(=O)c2cc1OC | > 100 µM | > 100 µM | > 100 µM | > 100 µM | > 100 µM | – | > 100 µM | > 100 µM | > 100 µM | > 100 µM | > 100 µM | > 100 µM | > 100 µM | > 100 µM | > 100 µM | > 100 µM | > 100 µM | > 100 µM | > 100 µM | > 100 µM
Cc1cc(S(=O)(=O)NC2=NC(c3ccccc3)c3ccccc3N2)c(S)cc1Cl (stereo not given) | > 100 µM | > 100 µM | > 100 µM | > 100 µM | 80.9 µM | > 100 µM | > 100 µM | > 100 µM | – | > 100 µM | > 100 µM | > 100 µM | > 100 µM | > 100 µM | > 100 µM | > 100 µM | > 100 µM | > 100 µM | > 100 µM | > 100 µM
N#Cc1c(C#N)c(-c2ccco2)n(-c2ccccc2)c1N | > 100 µM | – | > 100 µM | > 100 µM | > 100 µM | – | > 100 µM | > 100 µM | > 100 µM | > 100 µM | > 100 µM | > 100 µM | > 100 µM | > 100 µM | > 100 µM | > 100 µM | > 100 µM | > 100 µM | > 100 µM | > 100 µM
CC(C)(C)OC(=O)NC(Cc1ccc(OCc2ccccc2)cn1)C(=O)NCc1ccccc1 (stereo not given) | 97.8 µM | 69.7 µM | > 100 µM | 30.8 µM | 53 µM | > 100 µM | > 100 µM | 51.6 µM | 35.7 µM | 48.6 µM | > 100 µM | 60.4 µM | 43.8 µM | > 100 µM | – | > 100 µM | > 100 µM | 51.6 µM | > 100 µM | 26 µM
COc1ccc(N2C(=O)c3cccnc3S2(=O)=O)cc1 | > 100 µM | > 100 µM | > 100 µM | > 100 µM | > 100 µM | > 100 µM | > 100 µM | > 100 µM | > 100 µM | > 100 µM | > 100 µM | > 100 µM | > 100 µM | > 100 µM | > 100 µM | > 100 µM | > 100 µM | > 100 µM | > 100 µM | –
CCCNC(C#N)c1ccc(OCCCCCCCCCCOc2ccc(C(C#N)NCCC)cc2)cc1 (stereo not given) | > 100 µM | > 100 µM | 42.7 µM | > 100 µM | > 100 µM | > 100 µM | > 100 µM | > 100 µM | > 100 µM | > 100 µM | – | 66.1 µM | > 100 µM | > 100 µM | > 100 µM | 76.3 µM | > 100 µM | > 100 µM | > 100 µM | > 100 µM
CCN(CC)CCn1c2cc3c(cc2c(=O)c2cccnc21)OCO3 | > 10 µM | 7.79 µM | > 10 µM | > 10 µM | > 10 µM | > 10 µM | > 10 µM | > 10 µM | > 10 µM | > 10 µM | > 10 µM | > 10 µM | > 10 µM | > 10 µM | > 10 µM | – | > 10 µM | > 10 µM | > 10 µM | > 10 µM

Source: PubChem BioAssay (NCI)
